Reference: US20160199481A1 (priority 2013, published 2016)
Entries after “also recorded” stand apart in the source; their conditions may differ.

What was measured:
Type in all cases: cell-based, influenza A
G147R NA-only VLPs = tested on: G147R NA-only VLPs
[1] = tested on: PassMut HA/G147R NA virus
WT HA/G147R NA virus [2] = tested on: WT HA/G147R NA virus
WT HA/G147R NA virus [3] = tested on: WT HA/G147R NA virus; remark: listed apart in the source
[4] = tested on: PassMut HA/G147R NA virus; remark: listed apart in the source

oseltamivir
oseltamivir concentration down to which agglutination was inhibited (G147R NA-only VLPs): 0.12 nM
reversal of agglutination by G147R VLPs (G147R NA-only VLPs): reversed the agglutination
neutralization of infectivity (percent infectivity remaining) [1]: nearly completely neutralized by oseltamivir; also recorded: strongly neutralized at low nanomolar oseltamivir concentrations
neutralization of infectivity (percent infectivity remaining) (WT HA/G147R NA virus [2]): partially neutralized by oseltamivir; also recorded: intermediate phenotype
inhibition of agglutination by oseltamivir (WT HA/G147R NA virus [3]): uninhibited at all oseltamivir concentrations tested
oseltamivir concentration down to which agglutination was inhibited [4]: 1.5 nM
